Here are results for 17 molecules from PubChem BioAssay (NCI).

Where “and” joins values, the source holds several entries; their conditions need not be identical. Equal entries are not always repeated.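 Cultured in 96-well plates, cells were exposed to test compound for 48 hours across five concentrations. TGI is the concentration that stops growth completely.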

Some test systems named below: RPMI-8226 leukemia; OVCAR-5 ovarian; LOX IMVI melanoma; TK-10 renal; SN12C renal; HCT-15 colon; UACC-62 melanoma; MCF7 breast; T-47D breast; HS 578T breast.
Common to all, as to experiment: DTP human tumour cell line panel, 48 h

For `CCOC(=O)CCC1(C(=O)OC)CCCC1=O` (centres undefined), the concentration for total growth inhibition (TGI) in the assay with RPMI-8226 leukemia, with OVCAR-5 ovarian, with LOX IMVI melanoma and in the assay with TK-10 renal was > 100 µM each time.
On to `O=c1[nH]c(=O)n(C2CC(O)C(CO)O2)cc1C#Cc1ccc(C(F)(F)F)cc1` (centres undefined), for which the TGI in the assay with RPMI-8226 leukemia, in the assay with SN12C renal, in the assay on OVCAR-5 ovarian, in the assay with HCT-15 colon, in the assay on UACC-62 melanoma and in the assay on LOX IMVI melanoma was > 100 µM each time. The TGI (in general, the concentration giving total growth inhibition) with TK-10 renal was > 100 µM.
Turning to `O=C1CCC2(CCC(=O)NC2=O)C(=O)N1`, the TGI with RPMI-8226 leukemia, in the assay on SN12C renal, in the assay with HCT-15 colon, in the assay with LOX IMVI melanoma and in the assay on TK-10 renal was > 100 µM each time.
`O=C1NC(=O)/C(=C\c2ccncc2)N1`: the TGI in the assay on SN12C renal, in the assay with OVCAR-5 ovarian, with HCT-15 colon, in the assay on MCF7 breast, in the assay with LOX IMVI melanoma and in the assay on TK-10 renal was > 100 µM each time. In the assay with T-47D breast, the TGI is > 100 µM.
In the case of `Cc1ccc(-c2cc(-c3ccc(Cl)cc3)nc(/N=C3\C(=O)N(CN4CCCCC4)c4ccc(Cl)cc43)n2)cc1`, the total growth inhibition concentration (TGI) was 62.3 µM in the assay on SN12C renal; 49.4 µM with HS 578T breast; > 100 µM in the assay on OVCAR-5 ovarian; > 100 µM with HCT-15 colon; > 100 µM in the assay with UACC-62 melanoma; 77.9 µM with MCF7 breast. Further, the TGI with LOX IMVI melanoma was 53 µM; with TK-10 renal it was 71.1 µM; with T-47D breast, > 100 µM.
Consider `C=CCc1c(O)c2ccccc2[nH]c1=O`, for which the TGI in the assay with RPMI-8226 leukemia, in the assay with SN12C renal, with HS 578T breast, in the assay with OVCAR-5 ovarian, with HCT-15 colon and in the assay with MCF7 breast was > 100 µM throughout. For the same molecule, the TGI in the assay with LOX IMVI melanoma and in the assay on TK-10 renal was > 100 µM in each case.
With `O=[N+]([O-])c1ccc2nc3ccc([N+](=O)[O-])cn3c2c1`, the TGI in the assay on SN12C renal, in the assay on HS 578T breast, in the assay with OVCAR-5 ovarian, in the assay with HCT-15 colon, with UACC-62 melanoma and in the assay with MCF7 breast was > 100 µM each time. The total growth inhibition concentration (TGI) with LOX IMVI melanoma, in the assay on TK-10 renal and with T-47D breast was > 100 µM throughout.
For the molecule `CC1=NN(C(=O)CC(=O)Nc2cccc(Cl)c2)C(=O)C1N=Nc1ccc(S(N)(=O)=O)cc1` (centres undefined), the total growth inhibition concentration (TGI) in the assay with RPMI-8226 leukemia, in the assay with SN12C renal, in the assay on OVCAR-5 ovarian, in the assay on HCT-15 colon, in the assay on UACC-62 melanoma and with LOX IMVI melanoma was > 100 µM throughout. Besides, the TGI in the assay with TK-10 renal was > 100 µM.
Take `O=C1CSC2(CC(/C=C/C=C/c3ccccc3)=NN2c2cccc(S(=O)(=O)O)c2)N1c1nc2ccccc2s1` (centres undefined): the TGI in the assay on RPMI-8226 leukemia was 55 µM; in the assay with SN12C renal it was > 100 µM; in the assay with OVCAR-5 ovarian, > 100 µM; with HCT-15 colon, > 100 µM; in the assay with UACC-62 melanoma it was > 100 µM; with MCF7 breast, > 100 µM. The TGI with LOX IMVI melanoma was 42.2 µM; with TK-10 renal, > 100 µM; in the assay on T-47D breast, > 100 µM.
In the case of `O=C(C[C@@H]1NCCC[C@H]1O)Cn1cnc2cc(Br)c(Cl)cc2c1=O`, the concentration for total growth inhibition (TGI) in the assay with RPMI-8226 leukemia turned out to be 0.128 µM; in the assay with SN12C renal, 0.0726 µM; in the assay with HS 578T breast it was 1.36 µM; in the assay with OVCAR-5 ovarian, 0.0883 µM; in the assay with HCT-15 colon it was 0.403 µM; with MCF7 breast, 20.3 µM. Moreover, the results for the total growth inhibition concentration (TGI) in the assay with LOX IMVI melanoma and in the assay with T-47D breast were 0.0268 µM and 0.082 µM, respectively.
As for `Cc1ccc(S(=O)(=O)Nn2c(-c3ccccc3)c(C#N)c(-c3ccc([N+](=O)[O-])cc3)c(C#N)c2=O)cc1`, the TGI was 64.3 µM with RPMI-8226 leukemia; > 100 µM in the assay on SN12C renal; > 100 µM in the assay on HS 578T breast; > 100 µM with OVCAR-5 ovarian; > 100 µM in the assay with HCT-15 colon; > 100 µM in the assay with UACC-62 melanoma. In addition, the TGI in the assay with MCF7 breast, in the assay with LOX IMVI melanoma and in the assay with TK-10 renal was > 100 µM each time.
On to `C/C(=N\N(C)C)C(CN(C)C)C(c1ccccc1)c1c(O)c2ccccc2oc1=O` (centres undefined), for which the TGI in the assay on RPMI-8226 leukemia, with SN12C renal, in the assay on OVCAR-5 ovarian, in the assay on HCT-15 colon, in the assay on UACC-62 melanoma and in the assay with LOX IMVI melanoma was > 100 µM each time. The TGI in the assay with TK-10 renal is > 100 µM.
For the molecule `CC(=O)O[C@]12CCCCCCC1C1(O)C(O)CCC[C@H]12` (some centres undefined), the TGI in the assay on RPMI-8226 leukemia, in the assay with SN12C renal, in the assay on HCT-15 colon, with UACC-62 melanoma, in the assay with LOX IMVI melanoma and with TK-10 renal was > 100 µM each time.
Consider `Brc1ccc(N2C[N+](c3ccc(Br)cc3)=NC(c3ccccc3)=N2)cc1`, for which the TGI is 27.7 µM and > 100 µM in the assay with RPMI-8226 leukemia; 33.3 µM and > 100 µM in the assay on SN12C renal; 30.2 µM and > 100 µM with OVCAR-5 ovarian; 33.5 µM and > 100 µM in the assay on HCT-15 colon; 28.2 µM and > 100 µM in the assay with UACC-62 melanoma; 38 µM and > 100 µM in the assay on TK-10 renal.
As to `O=C1C/C(=C\O)C(=O)c2ccccc2N1`, the TGI in the assay with SN12C renal, with HS 578T breast, in the assay with OVCAR-5 ovarian, in the assay with HCT-15 colon, with UACC-62 melanoma and in the assay on MCF7 breast was > 100 µM throughout. The total growth inhibition concentration (TGI) in the assay on LOX IMVI melanoma, in the assay with TK-10 renal and in the assay on T-47D breast was > 100 µM throughout.
For `Cc1ccc2ccccc2c1CC1S(=O)(=O)OCCOS1(=O)=O`, the concentration for total growth inhibition (TGI) in the assay with RPMI-8226 leukemia stood at 32.3 µM; in the assay on SN12C renal it was 23.7 µM; in the assay on OVCAR-5 ovarian, 24.4 µM; in the assay on HCT-15 colon, 42.9 µM; in the assay with MCF7 breast it was 23.1 µM; in the assay with LOX IMVI melanoma it was 22.2 µM. The TGI with TK-10 renal came to 31.1 µM.
Regarding `NC1=NS(=O)(=O)N=C(N)C1=Cc1ccc([N+](=O)[O-])o1`, the TGI with RPMI-8226 leukemia was 70 µM; with SN12C renal it was 30.1 µM; in the assay on OVCAR-5 ovarian it was 32.9 µM; in the assay on HCT-15 colon, 30.7 µM; in the assay on UACC-62 melanoma, 30.2 µM; in the assay with LOX IMVI melanoma, 33.2 µM. For the same molecule, the TGI in the assay with TK-10 renal amounted to 32.6 µM.
